According to EP0503388A1, “Pregna-21-oic acid esters” (TEIKOKU SEIYAKU KABUSHIKI KAISHA, priority 1991, dated 1992):

Tested on: back of volunteers (10 healthy adult males)
Test: Vasoconstrictive activity: skin paleness after application of 0.1 % ointment in fin chamber
Format: in vivo
Details: for % of the number of subject which showed (+) Paleness was clearly observed / % of the number of subject which showed (±) Paleness was slightly obseved: 0.1 % by weight, about 20 mg of sample, 10 subjects; for vasoconstrictive activity (skin paleness), overall result in words: 0.1 % by weight in white petrolatum base, compared with reference ointments of prednisolone and dexamethasone
Description: The compounds of the present invention were tested for the vasoconstrictive activity in the following manner.
Each of the compounds (1) to (10) of the present invention was mixed in a white petrolatum base (white petrolatum : liquid paraffin = 9 : 1) at a concentration of 0.1 % by weight for use as a test sample. Commercially available steroidal medicaments (ointments of prednisolone and dexamethasone) were used at a concentration of 0.1 % by weight of the steroid as a reference sample. A commercially available ointment base was used as a control.
To one portion of the back of volunteers (10 healthy adult males) was applied each sample. About 20 mg of each sample was put in an aluminum part of fin chamber, which was applied. Two hours and four hours after the application, samples were simultanously removed. […] The result was evaluated based on the following criteria (-) Paleness was not observed. (±) Paleness was slightly obseved. (+) Paleness was clearly observed.

[1] = application time 2 hr, 2 hours after removal
[2] = application time 2 hr, 4 hours after removal
[3] = application time 4 hr, 2 hours after removal
[4] = application time 4 hr, 4 hours after removal

Row | SMILES | % of the number of subject which showed (+) Paleness was clearly observed [1] [%] | % of the number of subject which showed (±) Paleness was slightly obseved [1] [%] | % of the number of subject which showed (+) Paleness was clearly observed [2] [%] | % of the number of subject which showed (±) Paleness was slightly obseved [2] [%] | % of the number of subject which showed (+) Paleness was clearly observed [3] [%] | % of the number of subject which showed (±) Paleness was slightly obseved [3] [%] | % of the number of subject which showed (+) Paleness was clearly observed [4] [%] | % of the number of subject which showed (±) Paleness was slightly obseved [4] [%] | vasoconstrictive activity (skin paleness), overall result in words
1 | C[C@@H]1C[C@H]2[C@@H]3CCC4=CC(=O)C=C[C@]4(C)[C@@]3(F)[C@@H](O)C[C@]2(C)[C@@]1(O)C(=O)CO [Dexamethasone, dexamethasone, reference compound] | 0 | 0 | 0 | 10 | 0 | 10 | 0 | 20 | –
2 | COC(=O)[C@H](OC(C)=O)[C@@]1(O)[C@H](C)C[C@H]2[C@@H]3CCC4=CC(=O)C=C[C@]4(C)[C@@]3(F)[C@@H](O)C[C@@]21C [Compound (8), methyl (20S/R)-acetoxy-11β,17-dihydroxy-9α-fluoro-16α-methyl-3-oxo-1,4-pregnadien-21-oate] | – | – | – | – | – | – | – | – | did not show significant difference from reference
3 | COC(=O)[C@H](OC(=O)C(C)(C)C)[C@@]1(O)CC[C@H]2[C@@H]3CCC4=CC(=O)C=C[C@]4(C)[C@H]3[C@@H](O)C[C@@]21C [Compound (4)] | 0 | 10 | 0 | 70 | 20 | 70 | 40 | 100 | –
4 | COC(=O)[C@H](OC(=O)C(C)(C)C)[C@@]1(O)[C@H](C)C[C@H]2[C@@H]3CCC4=CC(=O)C=C[C@]4(C)[C@@]3(F)[C@@H](O)C[C@@]21C [Compound (10), methyl (20R)-11β,17-dihydroxy-9α-fluoro-16α-methyl-3-oxo-20-pivaloyloxy-1,4-pregnadien-21-oate] | 0 | 0 | 0 | 10 | 0 | 0 | 0 | 10 | –
5 | COC(=O)[C@@H](OC(=O)C(C)(C)C)[C@@]1(O)[C@H](C)C[C@H]2[C@@H]3CCC4=CC(=O)C=C[C@]4(C)[C@@]3(F)[C@@H](O)C[C@@]21C [Compound (9), methyl (20S)-11β,17-dihydroxy-9α-fluoro-16α-methyl-3-oxo-20-pivaloyloxy-1,4-pregnadien-21-oate] | 0 | 0 | 0 | 0 | 0 | 50 | 10 | 90 | excellent pharmacological activity
6 | COC(=O)[C@H](O)[C@@]1(O)[C@H](C)C[C@H]2[C@@H]3CCC4=CC(=O)C=C[C@]4(C)[C@@]3(F)[C@@H](O)C[C@@]21C [(6), methyl (20R)-9α-fluoro-16α-methyl-11β,17,20-trihydroxy-3-oxo-1,4-pregnadien-21-oate] | – | – | – | – | – | – | – | – | did not show significant difference from reference
7 | COC(=O)[C@@H](OC(C)=O)[C@@]1(O)[C@H](C)C[C@H]2[C@@H]3CCC4=CC(=O)C=C[C@]4(C)[C@@]3(F)[C@@H](O)C[C@@]21C [Compound (7), methyl (20S/R)-acetoxy-11β,17-dihydroxy-9α-fluoro-16α-methyl-3-oxo-1,4-pregnadien-21-oate] | 0 | 10 | 0 | 50 | 30 | 70 | 50 | 80 | excellent pharmacological activity
8 | COC(=O)[C@@H](O)[C@@]1(O)[C@H](C)C[C@H]2[C@@H]3CCC4=CC(=O)C=C[C@]4(C)[C@@]3(F)[C@@H](O)C[C@@]21C [(5), methyl (20S)-9α-fluoro-16α-methyl-11β,17,20-trihydroxy-3-oxo-1,4-pregnadien-21-oate] | – | – | – | – | – | – | – | – | did not show significant difference from reference
9 | C[C@]12C=CC(=O)C=C1CC[C@@H]1[C@@H]2[C@@H](O)C[C@@]2(C)[C@H]1CC[C@]2(O)C(=O)CO [Prednisolone, prednisolone, reference compound] | 0 | 0 | 0 | 0 | 0 | 0 | 0 | 0 | –
